The target of this experiment is T1, Inward rectifier potassium channel 2 (Mus musculus, UniProt P35561).
T1 sequence (P35561 whole entry): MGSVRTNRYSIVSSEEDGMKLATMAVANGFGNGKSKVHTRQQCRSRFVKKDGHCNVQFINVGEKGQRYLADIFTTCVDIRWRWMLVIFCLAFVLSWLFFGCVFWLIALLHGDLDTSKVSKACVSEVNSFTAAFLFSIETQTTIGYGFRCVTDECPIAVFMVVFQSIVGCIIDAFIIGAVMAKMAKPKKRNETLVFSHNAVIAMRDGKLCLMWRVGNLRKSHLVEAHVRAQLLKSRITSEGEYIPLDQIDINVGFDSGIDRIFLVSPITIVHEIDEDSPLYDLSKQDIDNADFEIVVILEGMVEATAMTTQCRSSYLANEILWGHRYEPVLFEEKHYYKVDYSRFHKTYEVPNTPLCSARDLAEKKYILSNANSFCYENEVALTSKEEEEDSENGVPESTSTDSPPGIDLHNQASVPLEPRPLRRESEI
The experiment is described as follows: Kir2.1 inward rectifier channel blockers, dose response, mouse Kir2.1 (AID 2594).

SMILES strings stand for the structures. Where a name gives a salt, the structure may show the parent alone.

Turning to `COc1ccc(CNCc2cccc3ccccc23)cc1`, the half-maximal inhibitory concentration (IC50) (commonly the concentration that inhibits the measured activity by half) was 26.9 µM.

Take `CC(NS(=O)(=O)c1ccc(Br)s1)c1ccccc1` (stereo not given): the IC50 is 19.8 µM.

As for `Cc1ccc(OCC(O)CNCc2ccc(F)cc2)cc1` (stereo not given) [1-[(4-fluorophenyl)methylamino]-3-(4-methylphenoxy)propan-2-ol], the IC50 amounted to 24.6 µM. In turn, `Cc1ccc(Nc2cc(C)nc3c(C)cccc23)cc1` [2,8-dimethyl-N-(4-methylphenyl)quinolin-4-amine] registered an IC50 of 43.1 µM. Take `Fc1ccc(N2CCN(Cc3c[nH]c4ccccc34)CC2)cc1` [3-[[4-(4-fluorophenyl)piperazin-1-yl]methyl]-1H-indole]: it took 30.6 µM to reach half-maximal inhibition (IC50). Under `CCn1c(COc2ccccc2)nnc1SCc1ccc(C#N)cc1` [4-[[4-ethyl-5-(phenoxymethyl)-1,2,4-triazol-3-yl]sulfanylmethyl]benzonitrile] stands 48.3 µM. Regarding `Cc1ccc(O)c(CNCCNCc2cc(C)ccc2O)c1` [4-methyl-2-[[2-[(5-methyl-2-oxidanyl-phenyl)methylamino]ethylamino]methyl]phenol], the IC50 turned out to be 21.5 µM. Under `COc1ccc(CNC/C=C/c2ccccc2)cc1` [(E)-N-[(4-methoxyphenyl)methyl]-3-phenyl-prop-2-en-1-amine;hydrochloride] stands 22.3 µM. In the case of `Cc1ccc2[nH]c(NCc3ccccc3)nc2c1` [MLS000081058], half-maximal inhibition (IC50) was put at 33.4 µM. As to `c1ccc(COc2ccc(OCCCNC3CCCC3)cc2)cc1` [MLS000535503], the IC50 was 33.5 µM. The compound `CC(C)(C)OC(=O)NCCc1nnc(SCc2ccc(Cl)cc2)o1` [MLS000557943] had an IC50 of 15.8 µM. `CSc1ccc(S(=O)(=O)NC(C)c2ccccc2)cc1` (stereo not given) [MLS000693878] gave an IC50 of 43 µM. Then `CCCN1CCC(NC23CC4CC(CC(C4)C2)C3)CC1` [N-(1-adamantyl)-1-propyl-4-piperidinamine], with 54.2 µM. The compound `Clc1ccc(CNC2CCN(Cc3ccccc3)CC2)cc1` [N-[(4-chlorophenyl)methyl]-1-(phenylmethyl)-4-piperidinamine] registered an IC50 of 37.7 µM.

Compound `COc1ccc(Nc2ccnc3ccccc23)cc1` [SMR000033695] showed an IC50 of 34 µM. `CCn1c(Sc2ccc(N)cc2Cl)nc2ccccc21` [SMR000078102] had an IC50 of 35.6 µM.

In turn, `O=S(=O)(c1ccc(F)cc1)N1CCCc2ccccc21` [SMR000514216] gave an IC50 of 58.5 µM. Turning to `CC(NS(=O)(=O)c1ccc(Br)cc1)c1ccccc1` (stereo not given) [SMR000516693], 25.6 µM corresponded to half-maximal inhibition (IC50). `COc1ccc(CNCCc2ccc3c(c2)OCO3)cc1Br` [SMR000555601] showed a 50% inhibitory concentration (IC50) of 34.7 µM. `CC(O)CNCCCOc1cccc(Oc2ccccc2)c1` (stereo not given) [oxalic acid;1-[3-(3-phenoxyphenoxy)propylamino]-2-propanol] returned an IC50 of 23.6 µM.
